In patent publication US11014934B2, “Antiseptic drug” (AO “TATKHIMFARMPREPARATY”, priority 2017, dated 2021):

Key:
gram-negative bacteria = test: MIC screening, summary for gram-negative bacteria; format: cell-based
Experimental: A comparative assessment of the spectrum of antibacterial action was carried out on archival and clinical strains of gram-positive and gram-negative microorganisms in accordance with the [Opredeleniye chuvstvitel'nosti mikroorganizmov k antibakterial'nym preparatam (Metodicheskiye ukazaniya MUK 4.2.1890-04). Utverzhdeny i vvedeny v deystviye Glavnym gosudarstvennym sanitarnym vrachom Rossiyskoy Federatsii G. G. Onishchenko 04.03.2004 g. Determination of the sensitivity of microorganisms to antibacterial drugs (Guidelines MUK 4.2.1890-04). Approved and put into effect by the Chief State Sanitary Doctor of the Russian Federation G. G. Onishchenko on 4 Mar. 2004].
The value of the minimum inhibitory concentration (MIC) was determined by the method of serial dilutions on Müller-Hinton broth using 96-well sterile plates. Two-fold dilutions of the test substances in a nutrient medium were prepared. The final concentrations were 1-128 ug/ml. The growth of cultures was assessed visually, comparing the growth of microorganisms in the presence of test compounds with the growth of culture without them. […] The first lowest concentration of the studied substance (from a series of consecutive dilutions), where bacterial growth is not visually determined, is considered to be the minimum inhibitory concentration (MIC). MIC was determined by the method of serial dilutions in broth with increment=2, so the differences of neighboring dilutions are not considered to be significant. In each experience there is a positive (broth with growing culture) and a negative (broth without growing culture) control.
To determine the MIC, 10 μl of culture medium was taken from those wells in which growth was not observed, and inoculation was performed on a dense Müller-Hinton broth. For the preparation of the inoculum, a pure, daily culture of gram-positive and gram-negative microorganisms grown on a dense nutrient medium was used. Nutrient medium is Müller-Hinton broth, which was prepared from dry media (Müller-Hinton broth, Acumedia, Baltimore), cultivation was carried out on agarized Müller-Hinton broth, including an additional 2% agar. The media were autoclaved at 121° C. for 15 minutes. […] The inoculum was used within 15 minutes after preparation; the purity of the bacterial strains was monitored before each experiment.
100 μl of Müller-Hinton broth was added to the wells of each plate; The tested substance was introduced into the first well at a concentration of 128 μg/ml in a volume of 100 μl and its concentration was adjusted to 0.5 μg/ml by consecutive two-fold dilution. […] In addition, the purity of nutrient media and solvents was monitored. […] The growth of cultures was assessed visually, comparing the growth of microorganisms in the presence of test compounds with the growth of culture without them. […]

[1] = tested on: gram-positive microorganisms in the biofilm; test: Antibacterial activity against cells immersed in a biofilm matrix (CFU, drop plate); format: cell-based
Experimental: To determine the effectiveness of the antibiotic against bacteria in […], bacteria were grown in Basal medium for 3 days at a temperature of 37° C. without swinging to obtain a dense biofilm [A. R Kayumov, Khakimullina E., Sharafutdinov I, Trizna E., Latypova L., Lien Thi, Margulis A., Bogachev M, Kurbangalieva A. Inhibition of biofilm formation in Bacillus subtilis by new halogenated furanoses. J. Antibiotics.—2014.—V. 68.—No 5.—P. 297-301.]. Then the biofilm was washed with a sterile 0.9% NaCl solution and fresh sterile medium was poured. Antiseptics were added to concentrations (1-16)×MBC (minimum bactericidal concentration) and incubated for 24 hours. Then the culture fluid was removed from the wells, washed once with 0.9% NaCl solution to remove non-adherent cells, and cell viability in biofilms was evaluated by counting CFU by Drop plate analysis [B. Herigstad, M Hamilton, J. Heersink How to optimize the drop plate method for enumerating bacteria. J Microbiol Methods.—2001.—V. 44.—P. 121-129]. To do this, the biofilm was mechanically removed from the surface and homogenized in 0.9% NaCl by pipetting and ultrasonic treatment. Then, serial 10-fold dilutions of the bacterial suspension in 0.9% NaCl were prepared, and 5 μI of each suspension were transferred to plates with dense nutrient medium. CFU was counted from drops containing 5-10 colonies.
The results of the study of antimicrobial activity against cells of the studied strains immersed in the biofilm matrix, in comparison with miramistin and benzalkonium chloride, are presented in FIGS. 1 and 2.

mice = details: intragastric administration on mice; literature and safety data sheets; cited from earlier work

Compound	MIC (gram-negative bacteria; Escherichia coli, ATCC25922, range, with the exception for the archival strain E. coli ATCC 25922)	less active than benzalkonium chloride [1]	LD50 (mice)	MIC (gram-negative bacteria; in 11 strains)	MIC (gram-negative bacteria; in 12 strains)	MIC (gram-negative bacteria; in 18 strains)	higher activity compared to miramistin and benzalkonium chloride ([1]; same decrease of CFU at lower excess of MBC)
CCCCCCCCCCCCCC(=O)NCCC[N+](C)(C)Cc1ccccc1.O.[Cl-] [Miramistin, benzyldimethyl [3-(myristoylamino)propyl]-ammonium chloride monohydrate]	32 to 64 µg/mL	2 times	1000 mg/kg	–	–	–	–
CCCCCCCCCCCC[N+](C)(C)Cc1cnc(C[N+](C)(C)CCCCCCCCCCCC)c2c1COC(CC)O2 (centres unmarked) [Compound I, 5,8-(Bis(methylene (N, N-dimethyl-N-dodecylammonium))-2-ethyl-4H-[1,3]dioxino [4,5-c]pyridiniumdichloride]	–	–	–	2 to 4 µg/mL	32 to 64 µg/mL	8 to 16 µg/mL	2 fold
alkyldimethyl(phenylmethyl) ammonium chloride [Benzalconium chloride]	–	–	150 mg/kg	–	–	–	–
